Assay results from patent publication US20030229067A1, “Pyrrolopyrimidine A2b selective antagonist compounds, their synthesis and use” (priority 2001, published 2003).

Target: T1, human A2B receptor (Homo sapiens, UniProt P29275)
T1 construct: expressed in transfected cells; membranes prepared from the cells
T1 sequence (P29275 1-332): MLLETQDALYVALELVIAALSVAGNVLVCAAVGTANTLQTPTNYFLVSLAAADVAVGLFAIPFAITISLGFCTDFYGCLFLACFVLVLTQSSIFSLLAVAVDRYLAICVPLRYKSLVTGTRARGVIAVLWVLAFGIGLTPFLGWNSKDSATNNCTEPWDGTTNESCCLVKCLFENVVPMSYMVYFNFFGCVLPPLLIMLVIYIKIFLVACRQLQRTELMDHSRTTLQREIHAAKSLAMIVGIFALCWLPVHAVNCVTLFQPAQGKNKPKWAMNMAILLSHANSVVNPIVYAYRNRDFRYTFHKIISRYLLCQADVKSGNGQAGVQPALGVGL
Assay: Radioligand binding assay ([3H]-DPCPX competition), membranes of HEK293 stably expressing human A2B receptor
Settings: [3H]-DPCPX competition binding
From the text: Materials. [^3H]—DPCPX [cyclopentyl-1,3-dipropylxanthine] (120 Ci/mmol) was purchased from New England Nuclear (Boston, Mass.). The adenosine deaminase and complete protease inhibitor cocktail tablets were purchased from Boehringer Mannheim Corp. (Indianapolis, Ind.). Cell culture reagents were from Life Technologies (Grass Island, N.Y.) except for serum that was from Hyclone (Logan, Utah).
Cell line. HEK293 stably expressing the human A2B receptor were used for radioligand binding assays. Cells were grown in DMEM Glutamax containing 10% FBS, 0.2 mg/ml G418 at 37° C. in 5% CO2/95% atmosphere.
Membrane Preparation. Cells were washed with cold PBS buffer twice, scraped off the plates, and centrifuged at 1000×g for 5 minutes. Cells were homogenized with ice-cold buffer of 5 mM Tris, pH 7.4, 5 mM EDTA, 5 mM EGTA, protease inhibitor cocktail tablets and incubated for 10 min on ice. The homogenate was centrifuged at 32,000×g for 30 min. The membranes were resuspended in buffer of 50 mM Tris, pH 7.4, 0.6 mM EDTA, 5 mM MgCl2, stored at −80° C. until use. Protein concentration was determined by the methods of Bradford.
Radioligand binding assay. Membranes were homogenized in buffer containing 10 mM HEPES-KOH, pH 7.4 containing 1.0 mM EDTA; 2 U/ml adenosine deaminase; and 0.1 mM Benzamidine and incubated for 30 min at room temperature. Dissociation constants of radioligand (Kd values) and maximum binding sites (Bmax) were determined in saturation binding experiments. Saturation binding assays were carried out in a reaction mixture containing 50 μl of membrane suspension, 25 μl of 4% DMSO, 25 μl of increasing amounts of radioligand, [^3H]—DPCPX (final concentration 1-200 nM). […] Nonspecific binding was measured in the presence of […] NECA. Compounds were dissolved in
DMSO and then diluted with 4% DMSO; the final maximum DMSO concentrations were 1%. […] Reactions were terminated by rapid filtration over GF/C filters using a cell harvester. The filters were washed ten times with 0.4 ml of ice-cold buffer containing 10 mM HEPES-KOH, pH 7.4. The filters were dried, covered with scintillation fluid and counted with a TopCount.

Structure (SMILES) | Ki
CC(=O)NCCNc1nc(-c2ccccc2)nc2[nH]c(COC3CCN(CCc4ccccc4Cl)CC3)cc12 [17.7, N-[2-(6-{1-[2-(2-Chlorophenyl)ethyl]piperidin-4-yloxymethyl}-2-phenyl-7H-pyrrolo[2,3-d]pyrimidin-4-ylamino)ethyl]acetamide] | 5 nM

Same assay, conditions: binding assays, A2B vs A1, A2A, A3

Structure (SMILES) | receptor profile in words (selectivity listing)
CC(=O)NCCNc1nc(-c2ccccc2)nc2[nH]c(C(=O)N3CCN(c4ccc(Cl)cc4)CC3)cc12 [26.71, N-(2-{6-[4-(4-Chlorophenyl)-piperazine-1-carbonyl]-2-phenyl-7H-pyrrolo[2,3-d]pyrimidin-4-ylamino}-ethyl)-acetamide] | A1/A2B dual antagonist

Same assay, conditions: fold selectivity A2B over A1, A2A and A3 receptors, binding assays

Structure (SMILES) | selectivity for the A2B receptor relative to the A1, A2A, and A3 receptor
CC(=O)NCCNc1nc(-c2ccccc2)nc2[nH]c(C(=O)N3CCC(C#N)(c4ccccc4Cl)CC3)cc12 [26.237, N-(2-{6-[4-(2-Chlorophenyl)-4-cyanopiperidine-1-carbonyl]-2-phenyl-7H-pyrrolo[2,3-d]pyrimidin-4-ylamino}-ethyl)-acetamide] | 57 ×
CC(=O)NCCNc1nc(-c2ccccc2)nc2[nH]c(C(=O)N3CCN(CCCc4ccc(Cl)cc4)CC3)cc12 [26.135, N-[2-(6-{4-[3-(4-Chlorophenyl)-propyl]-piperazine-1-carbonyl}-2-phenyl-7H-pyrrolo[2,3-d]pyrimidin-4-ylamino)-ethyl]-acetamide] | 19 ×
CC(=O)NCCNc1nc(-c2ccccc2)nc2[nH]c(COC3CCN(CCc4ccccc4Cl)CC3)cc12 [17.7, N-[2-(6-{1-[2-(2-Chlorophenyl)ethyl]piperidin-4-yloxymethyl}-2-phenyl-7H-pyrrolo[2,3-d]pyrimidin-4-ylamino)ethyl]acetamide] | 26 ×
CC(=O)NCCNc1nc(-c2ccccc2)nc2[nH]c(C(=O)N3CCN(c4ccc(Cl)cc4)CC3)cc12 [26.71, N-(2-{6-[4-(4-Chlorophenyl)-piperazine-1-carbonyl]-2-phenyl-7H-pyrrolo[2,3-d]pyrimidin-4-ylamino}-ethyl)-acetamide] | 82 ×
COC1(c2ccccc2Cl)CCN(C(=O)c2cc3c(NCCNC(C)=O)nc(-c4ccccc4)nc3[nH]2)CC1 [26.42, N-(2-{6-[4-(2-Chlorophenyl)-4-methoxypiperidine-1-carbonyl]-2-phenyl-7H-pyrrolo[2,3-d]pyrimidin-4-ylamino}-ethyl)-acetamide] | 57 ×
CC(=O)NCCNc1nc(-c2ccccc2)nc2[nH]c(C(=O)N3CCC(C#N)(c4ccccc4Cl)CC3)cc12.CS(=O)(=O)O [26.237.MsOH, N-(2-{6-[4-(2-Chlorophenyl)4-cyanopiperidine-1-carbonyl]-2-phenyl-7H-pyrrolo[2,3-d]pyrimidin-4-ylamino}-ethyl)-acetamide methanesulfonic acid salt] | 33 ×
CC(=O)NCCNc1nc(-c2ccccc2)nc2[nH]c(COC3CCN(CCc4ccccc4Cl)CC3)cc12.CS(=O)(=O)O [17.7.MsOH, N-[2-(-6-{1-[2-(2-Chlorophenyl)ethyl]piperidine-4-yloxymethyl}-2-phenyl-7H-pyrrolo[2,3-d]pyrimidin-4-ylamino)ethyl]acetamide methanesulfonic acid salt] | 24 ×
CC(=O)NCCNc1nc(-c2ccccc2)nc2[nH]c(C(=O)N3CCN(CCCc4ccc(Cl)cc4)CC3)cc12.CS(=O)(=O)O [26.135.MsOH, N-[2-(6-{4-[3-(4-Chlorophenyl)-propyl]-piperazine-1-carbonyl}-2-phenyl-7H-pyrrolo[2,3-d]pyrimidin-4-ylamino)-ethyl]-acetamide methanesulfonate salt] | 17 ×

Test system: not given
Assay: not given
Settings: not given

Structure (SMILES) | melting point
COC1(c2ccccc2Cl)CCN(C(=O)c2cc3c(NCCNC(C)=O)nc(-c4ccccc4)nc3[nH]2)CC1 [26.42, N-(2-{6-[4-(2-Chlorophenyl)-4-methoxypiperidine-1-carbonyl]-2-phenyl-7H-pyrrolo[2,3-d]pyrimidin-4-ylamino}-ethyl)-acetamide] | 201 to 202 °C
CC(=O)NCCNc1nc(-c2ccccc2)nc2[nH]c(C(=O)N3C[C@@H](C)N(CCCc4ccccc4)[C@@H](C)C3)cc12 [26.24, N-(2-{6-[cis-3,5-Dimethyl-4-(3-phenylpropyl)-piperazine-1-carbonyl]-2-phenyl-7H-pyrrolo[2,3-d]pyrimidin-4-ylamino}-ethyl)-acetamide] | 86 to 89 °C
NC(=O)CNc1nc(-c2ccccc2)nc2[nH]c(C(=O)N3CCN(CCCc4ccccc4)CC3)cc12 [26.15, 2-{2-Phenyl-6-[4-(3-phenylpropyl)-piperazine-1-carbonyl]-7H-pyrrolo[2,3-d]pyrimidin-4-ylamino}-acetamide] | 213 to 217 °C
CC(=O)NCCNc1nc(-c2ccccc2)nc2[nH]c(C(=O)N3CCC(O)(c4ccccc4)CC3)cc12 [26.7, N-{2-[6-(4-Hydroxy4-phenylpiperidine-1-carbonyl)-2-phenyl-7H-pyrrolo[2,3-d]pyrimidin-4-ylamino]-ethyl}-acetamide] | 158 to 162 °C (dec.)
CC(=O)NCCNc1nc(-c2ccccc2)nc2[nH]c(C(=O)N3C[C@@H](C)N(CCCc4ccccc4)C[C@@H]3C)cc12 [26.30] | 98 to 100 °C
CC(=O)NCCNc1nc(-c2ccccc2)nc2[nH]c(C(=O)N3CCC(O)(Cc4ccccc4)CC3)cc12 [26.8, N-{2-[6-(4-Benzyl-4-hydroxypiperidine-1-carbonyl)-2-phenyl-7H-pyrrolo[2,3-d]pyrimidin-4-ylamino]-ethyl}-acetamide] | 140 to 145 °C (dec.)
CC(=O)NCCNc1nc(-c2ccccc2)nc2[nH]c(C(=O)N3CCC(c4ccccc4)(c4ccccc4)CC3)cc12 [26.25, N-{2-[6-(4,4-Diphenylpiperidine-1-carbonyl)-2-phenyl-7H-pyrrolo[2,3-d]pyrimidin-4-ylamino]-ethyl}-acetamide] | 254 to 256 °C
CC(=O)NCCNc1nc(-c2ccccc2)nc2[nH]c(C(=O)N3CCC(Cc4ccc(F)cc4)CC3)cc12 [26.28, N-(2-{6-[4-(4-Fluorobenzyl)-piperidine-1-carbonyl]-2-phenyl-7H-pyrrolo[2,3-d]pyrimidin-4-ylamino}-ethyl)-acetamide] | 283 to 284 °C (dec.)
